Counter-ions that a name gives are not always drawn.
Legend:
[1] = system: human monocyte stimulated cytokine production (TNF-α); assay: Monocyte assay (LPS-stimulated TNF-α production); assay type: cell-based; conditions: for IC50: 24 h, 200 ng/mL LPS, TNF-α by ELISA; for inhibition at 0.3 µM: read-out: inhibition at 300 nM in the monocyte assay
Procedure, shortened: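 Human CD14+ monocytes were purified from blood and plated at 1×10^6 cells/mL in RPMI 1640 with 10% FBS. Compound was added 30 min before stimulation with 200 ng/mL LPS (0.1% DMSO final), followed by 24 hrs at 37 C. Supernatant TNF-α was measured by ELISA, and viability by trypan blue exclusion.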

[2] = target: T1, Recombinant human IKKβ (residues 1-737) (Homo sapiens, UniProt O14920); assay: IKK2 assay (TR-FRET); assay type: biochemical; conditions: ATP 1 μM final, read-out: pIC50 against IKK2 (converted)
T1 construct: Recombinant human IKKβ (residues 1-737); GST (C); made in house
T1 sequence (O14920 1-737): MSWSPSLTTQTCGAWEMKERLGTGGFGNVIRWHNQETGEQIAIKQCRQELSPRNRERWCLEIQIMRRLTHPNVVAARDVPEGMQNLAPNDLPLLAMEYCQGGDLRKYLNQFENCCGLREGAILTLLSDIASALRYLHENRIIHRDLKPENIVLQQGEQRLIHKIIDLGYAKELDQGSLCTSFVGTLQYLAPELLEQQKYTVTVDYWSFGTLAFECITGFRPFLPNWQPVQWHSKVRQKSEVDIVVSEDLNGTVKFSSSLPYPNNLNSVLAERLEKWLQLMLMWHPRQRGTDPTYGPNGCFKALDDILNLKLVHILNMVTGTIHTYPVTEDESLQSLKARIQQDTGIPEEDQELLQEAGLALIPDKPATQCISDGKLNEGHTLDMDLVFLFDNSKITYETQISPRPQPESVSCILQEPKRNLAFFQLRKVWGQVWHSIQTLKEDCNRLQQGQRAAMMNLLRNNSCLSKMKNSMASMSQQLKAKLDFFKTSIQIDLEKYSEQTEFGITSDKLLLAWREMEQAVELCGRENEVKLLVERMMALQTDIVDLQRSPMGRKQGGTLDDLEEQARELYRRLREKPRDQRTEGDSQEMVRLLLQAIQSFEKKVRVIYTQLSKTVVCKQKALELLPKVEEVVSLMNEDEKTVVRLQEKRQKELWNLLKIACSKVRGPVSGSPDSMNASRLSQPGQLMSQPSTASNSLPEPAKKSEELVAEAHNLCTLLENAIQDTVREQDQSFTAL
Procedure, shortened: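 Baculovirus-expressed C-terminal GST-tagged IKKβ (0.5-5 nM final) in HEPES pH 7.4, MgCl2, CHAPS, DTT, BSA with 1.7% DMSO; 25 nM GST-IB substrate and 1 μM ATP, 15 min at room temperature. EDTA stop; phospho-Ser32/36 detected by Eu-antibody/APC-anti-GST TR-FRET, 665/620 nm ratio.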

SMILES	IC50 [1] [µM]	IC50 [2] [µM]	inhibition at 0.3 µM [1] [%]
CCS(=O)(=O)N1CCC(c2c[nH]c3c(C(N)=O)cc(-c4ccc(F)c(CN[C@@H](C)CO)c4)cc23)CC1 [Example 273, 3-[1-(ethylsulfonyl)-4-piperidinyl]-5-[4-fluoro-3-({[(1S)-2-hydroxy-1-methylethyl]amino}methyl)phenyl]-1H-indole-7-carboxamide trifluoroacetate (salt)]	≤ 1.5	≤ 10	
CCS(=O)(=O)N1CCC(c2c[nH]c3c(C(N)=O)cc(-c4cncc(CN5CCCC5C)c4)cc23)CC1 (stereo not shown) [Example 179, 3-[1-(ethylsulfonyl)-4-piperidinyl]-5-{5-[(2-methyl-1-pyrrolidinyl)methyl]-3-pyridinyl}-1H-indole-7-carboxamide]		≤ 10	0 to 60
CCS(=O)(=O)N1CCC(c2c[nH]c3c(C(N)=O)cc(-c4ccnc(NCC(C)(C)C)c4)cc23)CC1 [Example 206, 5-{2-[(2,2-dimethylpropyl)amino]-4-pyridinyl}-3-[1-(ethylsulfonyl)-4-piperidinyl]-1H-indole-7-carboxamide trifluoroacetate]	> 1	≤ 10	
CCN1Cc2ccc(-c3cc(C(N)=O)c4[nH]cc(C5CCN(S(=O)(=O)CC)CC5)c4c3)cc2C1 [Example 419, 5-(2-ethyl-2,3-dihydro-1H-isoindol-5-yl)-3-[1-(ethylsulfonyl)-4-piperidinyl]-1H-indole-7-carboxamide]	≤ 1.5	≤ 10	
CCS(=O)(=O)N1CCC(c2c[nH]c3c(C(N)=O)cc(-c4csc(CN(C)CC5CCOCC5)c4)cc23)CC1 [Example 83, 3-[1-(ethylsulfonyl)-4-piperidinyl]-5-(5-{[methyl(tetrahydro-2H-pyran-4-ylmethyl)amino]methyl}-3-thienyl)-1H-indole-7-carboxamide trifluoroacetate]	≤ 1.5	≤ 10	
CCS(=O)(=O)N1CCC(c2c[nH]c3c(C(N)=O)cc(-c4cccc(CNS(=O)(=O)c5ccc(F)cc5)c4)cc23)CC1 [Example 380, 3-[1-(ethylsulfonyl)-4-piperidinyl]-5-[3-({[(4-fluorophenyl)sulfonyl]amino}methyl)phenyl]-1H-indole-7-carboxamide]	≤ 1.5	≤ 10	
CCS(=O)(=O)N1CCC(c2c[nH]c3c(C(N)=O)cc(-c4cccc(CNCCn5nc(C)cc5C)c4)cc23)CC1 [Example 350, 5-[3-({[2-(3,5-dimethyl-1H-pyrazol-1-yl)ethyl]amino}methyl)phenyl]-3-[1-(ethylsulfonyl)-4-piperidinyl]-1H-indole-7-carboxamide trifluoroacetate]		≤ 10	0 to 60
CCS(=O)(=O)N1CCC(c2c[nH]c3c(C(N)=O)cc(-c4cccc(CNCC(C)C)c4)cc23)CC1 [Example 156, 3-[1-(ethylsulfonyl)-4-piperidinyl]-5-(3-{[(2-methylpropyl)amino]methyl}phenyl)-1H-indole-7-carboxamide]	≤ 1.5	≤ 10	
CCS(=O)(=O)N1CCC(c2c[nH]c3c(C(N)=O)cc(-c4cccc(CNS(=O)(=O)c5cn(C)c(C)n5)c4)cc23)CC1 [Example 378, 5-[3-({[(1,2-dimethyl-1H-imidazol-4-yl)sulfonyl]amino}methyl)phenyl]-3-[1-(ethylsulfonyl)-4-piperidinyl]-1H-indole-7-carboxamide]	> 1	≤ 10	
CCS(=O)(=O)N1CCC(c2c[nH]c3c(C(N)=O)cc(-c4ccc(N5CCOCC5)nn4)cc23)CC1 [Example 301, 3-[1-(ethylsulfonyl)-4-piperidinyl]-5-[6-(4-morpholinyl)-3-pyridazinyl]-1H-indole-7-carboxamide trifluoroacetate]	> 1	≤ 10	
CCN(CC)Cc1ccc(-c2cc(C(N)=O)c3[nH]cc(C4CCN(S(=O)(=O)CC)CC4)c3c2)cc1 [Example 147, 5-{4-[(diethylamino)methyl]phenyl}-3-[1-(ethylsulfonyl)-4-piperidinyl]-1H-indole-7-carboxamide]	> 1	≤ 10	
CCS(=O)(=O)N1CCC(c2c[nH]c3c(C(N)=O)cc(-c4cccc(CN(C)CC(O)c5ccccc5)c4)cc23)CC1 (stereo not shown) [Example 12, 3-[1-(ethylsulfonyl)-4-piperidinyl]-5-(3-{[(2-hydroxy-2-phenylethyl)-(methyl)amino]methyl}phenyl)-1H-indole-7-carboxamide]	≤ 1.5	≤ 10	
CCS(=O)(=O)N1CCC(c2c[nH]c3c(C(N)=O)cc(-c4cccc(CNC(=O)c5cccn5C)c4)cc23)CC1 [Example 365, 3-[1-(ethylsulfonyl)-4-piperidinyl]-5-[3-({[(1-methyl-1H-pyrrol-2-yl)carbonyl]amino}methyl)phenyl]-1H-indole-7-carboxamide]	> 1	≤ 10	
CCS(=O)(=O)N1CCC(c2c[nH]c3c(C(N)=O)cc(-c4ccc(N(C)C)cc4)cc23)CC1 [Example 165, 5-[4-(dimethylamino)phenyl]-3-[1-(ethylsulfonyl)-4-piperidinyl]-1H-indole-7-carboxamide]	> 1	≤ 10	
CCS(=O)(=O)N1CCC(c2c[nH]c3c(C(N)=O)cc(-c4cccc(CNC(=O)Cc5cccs5)c4)cc23)CC1 [Example 366, 3-[1-(ethylsulfonyl)-4-piperidinyl]-5-(3-{[(2-thienylacetyl)amino]methyl}phenyl)-1H-indole-7-carboxamide]	≤ 1.5	≤ 10	
CCS(=O)(=O)N1CCC(c2c[nH]c3c(C(N)=O)cc(-c4cncc(CN(C)C)c4)cc23)CC1 [Example 178, 5-{5-[(dimethylamino)methyl]-3-pyridinyl}-3-[1-(ethylsulfonyl)-4-piperidinyl]-1H-indole-7-carboxamide]		≤ 10	0 to 60
CCS(=O)(=O)N1CCC(c2c[nH]c3c(C(N)=O)cc(-c4cccc(C5CCCN5C)c4)cc23)CC1 (stereo not shown) [Example 344, 3-[1-(ethylsulfonyl)-4-piperidinyl]-5-[3-(1-methyl-2-pyrrolidinyl)phenyl]-1H-indole-7-carboxamide trifluoroacetate]	≤ 1.5	≤ 10	
CCS(=O)(=O)N1CCC(c2c[nH]c3c(C(N)=O)cc(-c4cc(CNCCCOC)cs4)cc23)CC1 [Example 214, 3-[1-(ethylsulfonyl)-4-piperidinyl]-5-[4-({[3-(methyloxy)propyl]amino}methyl)-2-thienyl]-1H-indole-7-carboxamide trifluoroacetate]	≤ 1.5	≤ 10	
CCCCCN(C)Cc1cc(-c2cc(C(N)=O)c3[nH]cc(C4CCN(S(=O)(=O)CC)CC4)c3c2)cs1 [Example 72, 3-[1-(ethylsulfonyl)-4-piperidinyl]-5-(5-{[methyl(pentyl)amino]methyl}-3-thienyl)-1H-indole-7-carboxamide trifluoroacetate]	≤ 1.5	≤ 10	
CCS(=O)(=O)N1CCC(c2c[nH]c3c(C(N)=O)cc(-c4cncc(CNCC(F)(F)F)c4)cc23)CC1 [Example 63, 3-[1-(ethylsulfonyl)-4-piperidinyl]-5-(5-{[(2,2,2-trifluoroethyl)amino]methyl}-3-pyridinyl)-1H-indole-7-carboxamide]		≤ 10	0 to 60
CCS(=O)(=O)N1CCC(c2c[nH]c3c(C(N)=O)cc(-c4cc(F)cc(CNCCOC)c4)cc23)CC1 [Example 326, 3-[1-(ethylsulfonyl)-4-piperidinyl]-5-[3-fluoro-5-({[2-(methyloxy)ethyl]amino}methyl)phenyl]-1H-indole-7-carboxamide trifluoroacetate]	≤ 1.5	≤ 10	
CCS(=O)(=O)N1CCC(c2c[nH]c3c(C(N)=O)cc(-c4cccc(CNS(=O)(=O)c5cccc6nonc56)c4)cc23)CC1 [Example 385, 5-(3-{[(2,1,3-benzoxadiazol-4-ylsulfonyl)amino]methyl}phenyl)-3-[1-(ethylsulfonyl)-4-piperidinyl]-1H-indole-7-carboxamide]	> 1	≤ 10	
CCS(=O)(=O)N1CCC(c2c[nH]c3c(C(N)=O)cc(-c4cc(CNCC(C)C)ccc4F)cc23)CC1 [Example 335, 3-[1-(ethylsulfonyl)-4-piperidinyl]-5-(2-fluoro-5-{[(2-methylpropyl)amino]methyl}phenyl)-1H-indole-7-carboxamide trifluoroacetate]	≤ 1.5	≤ 10	

From patent US8063071B2 (GlaxoSmithKline, LLC, priority 2007, dated 2011)
